Here are results for one molecule from patent US6483013B1, “Method for agrobacterium mediated transformation of cotton” (Bayer BioScience N.V., priority 1999, dated 2002).

Values joined by “and” are separate entries in the source; they are usually repeats but may differ in a detail not shown here. Equal values may be shown once.

This assay concerns cotton embryogenic callus. The assay is described as follows: β-glucuronidase (GUS) assay of embryogenic cotton callus after cocultivation with Agrobacterium strain A3311. Type of assay: cell-based, cotton (variety Coker 312). How it is done:
Embryogenic cotton callus was obtained in the following way: Cotton seeds of variety Coker 312 were disinfected using a 12% sodium hypochloride solution, and germinated individually in tubes containing a solution of gelrite 2/g/l H2O and 0.94 g/l MgCl2.6H2O. The tubes were incubated in the dark at 27-28° C. After 10 to 14 days, seedlings are collected, the hypocotyls of the seedlings were cut in segments of about 1 cm and incubated on medium 104 (without plant hormones) at 28° C. under a regime of 16 hr light and 8 hr dark. Every three weeks, the segments were transferred to fresh medium, until embryogenic callus was formed (usually after about 9 weeks). This callus was removed from the explants and cultured further on medium 104.
Agrobacterium strain A 3311 cells were grown on AB medium or MAG medium, collected and resuspended in M104 liquid medium, pH 5.2 (either with or without 100 μM acetosyringone (AS)) or MAG medium at a density of about 1×10^9 CFU/ml. Small embryogenic cotton callus clumps were collected, washed in liquid medium 104 at pH 5.2, and immersed in the Agrobacterium suspension for about 20 minutes. The infected embryogenic calli were than transferred to solid medium 104, pH 5.2, supplemented with either 100 μM AS, 0.5 g/l casamino acids, 100 μM AS and 0.5 g/l casamino acids, or not supplemented at all, and incubated for cocultivation during 4 days in the dark at about 24° C.
After the cocultivation phase, the callus clumps were transferred to selective medium 104 supplemented with 50 mg/l kanamycin and 500mg/l Claforan.
At different time intervals after the cocultivation, samples of embryogenic callus were collected and subjected to a β-glucuronidase assay, using a chromogenic substrate as described by Jefferson et al. (1987; Plant Mol. Biol. Rep. 5: 387-405). The results of these tests are summarized in table 1, and are expressed as the percentage of calli expressing GUS-positive spots.
As a control, experiments were included using tobacco leaf discs co-cultivated with A3311, using mock-inoculated tobacco leaf discs or using mock-inoculated embryogenic cotton callus.

Setting [1] is: 100 μM AS only in A3311 resuspension medium M104, cocultivation medium M104 not supplemented.
[2] abbreviates: A3311 resuspended in M104 + 100 μM AS, supplement in cocultivation medium M104.
Where [3] appears, read: A3311 resuspended in M104, supplement in cocultivation medium M104.
Setting [4] is: A3311 resuspended in MAG, supplement in cocultivation medium M104.
Setting [5] is: no Agrobacterium (mock-inoculated), supplement in cocultivation medium M104.

Regarding `COc1cc(C(C)=O)cc(OC)c1O` [AS, 3,5-dimethoxy-4-hydroxyacetophenone], the “percentage of calli expressing GUS-positive spots, 4 weeks” value is recorded as 0% under setting [1], 50% under setting [4] and 0% under setting [5]. In addition, the “percentage of calli expressing GUS-positive spots, 6 weeks” value runs as follows: under setting [1], 0%; under setting [3], 15% and 25%; under setting [4], 50% and 90%; under setting [5], 0%. For the same molecule, the “percentage of calli expressing GUS-positive spots, 8 weeks” value by setting is: under setting [1], “Dead”; under setting [2], 90% and 50%; under setting [3], 20%; under setting [4], 90% and 80%; under setting [5], “Dead”. Besides, the “percentage of calli expressing GUS-positive spots, 4 days” value reads like this: under setting [1], 0%; (A3311 resuspended in MAG, supplement in cocultivation medium M104 (100 μM AS and/or 0.5 g/l cas. acids)) 90%; (no Agrobacterium (mock-inoculated), supplement in cocultivation medium M104 (100 μM AS and/or 0.5 g/l cas. acids)) 0%. Further, the “percentage of calli expressing GUS-positive spots, 11 days” value (shortened to “percentage … 11 days”) under setting [1] came to 0%; the “percentage … 11 days” value under setting [2] is 70% and 90%; the “percentage … 11 days” value under setting [3] was 50% and 90%; the “percentage … 11 days” value under setting [4] is listed as 90%; the “percentage … 11 days” value under setting [5] worked out at 0%. Moreover, where the note is “both for transient expression and after prolonged cultivation of the transformed calli”, the “need for inclusion during Agrobacterium mediated transformation of embryogenic callus” value is “required”.
